Assays:
Nestin+ cells = conditions: AMD3100 0.15 mg/kg body weight/day by Alzet slow-release pump, tumor-bearing mice
Method: 8-week-old C57 BL/6 male mice having no more than […] of weight were taken and divided into control group, cachexia group (LLC), and AMD3100 group (LLC+AMD3100).
Control group: no treatment.
Cachexia group: 4×10^6 LLC was transplanted subcutaneously into the groin of mice. After 7 days, mice were anesthetized with 100 μL of 10% chloral hydrate, and Alzet slow release pumps (model: 1004) were implanted subcutaneously on the back of mice. The normal saline was contained in the pump.
AMDd3100 group: 4×10^6 LLC was transplanted subcutaneously into the groin of mice. After 7 days, mice were anesthetized with 100 μL of 10% chloral hydrate, and an Alzet slow-release pump (model: 1004) was implanted subcutaneously on its back, and AMD3100 was contained in the pump. The use amount of mice AMD3100 was 0.15 mg/kg weight/day. After 14 days of installation of the slow-release pump, the mice were killed, and the muscle and fat tissue sections were taken for immunofluorescence staining, or RNA reverse transcription for fluorescence quantitative PCR was carried out by extracting RNA reverse transcription to detect the expression of Nestin.

[1] = tested on: muscle and fat-derived Nestin+ cells; assay: Transwell migration of mouse Nestin+ cells promoted by Cxcl12; type: cell-based; conditions: 1 μmol/ml Cxcl12 under the Transwell chamber (8 μm pore), 24 hours, versus control without Cxcl12
Method: The Corning Transwell chamber (8 μm pore size) was placed on a 24-well plate, and muscle and fat-derived Nestin+ cells (see example 1) cultured in vitro were inoculated in the Transwell chamber with 2×10^4 cells/well, and cultured in a 5% CO2 and 37° C. incubator. Each well was added with 500 μl of DMEM/low sugar under the Transwell chamber. The experimental group contained 1 μmol/ml Cxcl12 factors, while Cxcl12 factors were not added in control group. After 24 hours, the chamber was taken out, the cells inside the chamber were wiped out with a cotton swab, and the chamber was washed gently and immobilized and rinsed twice with anhydrous alcohol; the chambers in various groups were marked, and erected on the abandoned well plate, and crystal violet dye solution was added into each well for incubate at room temperature for 15 min; excessive staining solution was washed away. The quantity of migrated cells in each group was measured under the inverted microscope. Five fields (400 times) were randomly selected to calculate the quantity of migrated cells in each group under the microscope with 3 repeated wells in each group. The average value of the results was calculated. It can be seen from FIG. 6 that Cxcl 12 can promote the migration of mouse Nestin+ cells.

Molecule | migration of Nestin+ cells from muscles and fats toward tumor (Nestin+ cells) | migration of mouse Nestin+ cells (quantity of migrated cells) [1] | migration of mouse Nestin+ cells (quantity of migrated cells) ([1]; listed as Cxcl12)
c1cc(CN2CCCNCCNCCCNCC2)ccc1CN1CCCNCCNCCCNCC1 [AMD3100, 1,1′-[1,4-phenylenebis(methylene)]-di-1,4,8,11-tetraazacyclotetradecane] | successfully inhibit |  | 
Cxcl 12: chemokine Cxcl12 factor added under the Transwell chamber; highly expressed in mouse tumor |  | promote | promoted

— patent publication US20200215029A1, “APPLICATION OF AMD3100 IN PREPARATION OF DRUG FOR TREATING AND/OR PREVENTING CACHEXIA AND PHARMACEUTICAL COMPOSITION THEREOF” (SUN YAT-SEN UNIVERSITY, priority 2017, published 2020)
